According to article PMC9024521, “4-Heteroaryl Substituted Amino-3,5-Dicyanopyridines as New Adenosine Receptor Ligands: Novel Insights on Structure-Activity Relationships and Perspectives” (Pharmaceuticals, 2022):

How the values were obtained:
Type in all cases: cell-based
hA1AR = target: T1, hA1AR (Homo sapiens, UniProt P30542); assay: Modulation of Forskolin-stimulated cAMP levels in hA1 CHO cells; settings: for EC50: footnote c, mean ± SEM of four experiments, read-out: hA1AR EC50 or IC50, potency to modulate Forskolin-stimulated cAMP levels; for hA1AR Efficacy: normalized: CCPA full agonist = 100%, DPCPX inverse agonist = −100%; for hA1AR Profile: pharmacological profile in cAMP assay
T1 construct: host or cells: CHO cells
T1 sequence (P30542 1-326): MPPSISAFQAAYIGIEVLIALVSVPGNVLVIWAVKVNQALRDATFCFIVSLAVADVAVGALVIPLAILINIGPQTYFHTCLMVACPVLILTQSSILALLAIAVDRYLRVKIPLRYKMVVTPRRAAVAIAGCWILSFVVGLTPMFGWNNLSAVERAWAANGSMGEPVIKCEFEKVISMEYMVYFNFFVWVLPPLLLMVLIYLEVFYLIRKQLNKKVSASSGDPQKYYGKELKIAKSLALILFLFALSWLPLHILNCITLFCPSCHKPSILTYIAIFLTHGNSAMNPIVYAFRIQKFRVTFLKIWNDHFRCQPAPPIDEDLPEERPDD
Procedure: (§1) The amino-3,5-dicyanopyridines 1–21 were tested for their affinity at hA1, hA2A and hA3 ARs, stably transfected in Chinese Hamster Ovary (CHO) cells. Moreover, they were also studied as hA2B agonists by evaluating their stimulatory effect on cAMP production in CHO cells, stably expressing the hA2B AR. […] Due to their interesting pan profile, both compounds 1 and 5 were evaluated as AR agonists also at the hA2A and hA3 subtypes.
(§2) CHO cells transfected with hA1, hA2A, hA2B and hA3 ARs (Perkin Elmer, Boston, MA, USA) were grown adherently and maintained in Dulbecco’s modified Eagle’s medium with nutrient mixture F12, containing 10% fetal calf serum, penicillin (100 U/mL), streptomycin (100 μg/mL), L-glutamine (2 mM) and geneticine (G418; 0.2 mg/mL), at 37 °C, in 5% CO2/95% air, until their use in cAMP assays. For membrane preparation, the culture medium was removed, and the cells were washed with phosphate-buffered saline and scraped off T75 flasks in ice-cold hypotonic buffer (5 mM Tris HCl, 1 mM EDTA, pH 7.4). The cell suspension was homogenized with a Polytron, centrifuged for 30 min at 40,000× g, at 4 °C, and the resulting membrane pellet was used for competition binding experiments.
(§3) CHO cells transfected with hAR subtypes were washed with phosphate-buffered saline, detached with tripsine and centrifuged for 10 min at 200× g. Cells were seeded in a 96-well white half-area microplate (Perkin Elmer, Boston, USA) in a stimulation buffer composed of Hank Balanced Salt Solution, 5 mM HEPES, 0.5 mM Ro 20–1724, 0.1% BSA. The cAMP levels were then quantified by using the AlphaScreen cAMP Detection Kit (Perkin Elmer, Boston, MA, USA), following the manufacturer’s instructions. At the end of the experiments, the plates were read with a Perkin Elmer EnSight Multimode Plate Reader.

hA3AR = target: T2, hA3AR (Homo sapiens, UniProt P0DMS8); assay: Modulation of Forskolin-stimulated cAMP levels in hA3 CHO cells; settings: for IC50: cAMP assay, hA3 CHO cells, read-out: hA3AR IC50, potency to modulate Forskolin-stimulated cAMP levels; for hA3AR Efficacy: normalized: 2-Cl-IB-MECA full agonist = 100%
T2 construct: host or cells: CHO cells
T2 sequence (P0DMS8 1-318): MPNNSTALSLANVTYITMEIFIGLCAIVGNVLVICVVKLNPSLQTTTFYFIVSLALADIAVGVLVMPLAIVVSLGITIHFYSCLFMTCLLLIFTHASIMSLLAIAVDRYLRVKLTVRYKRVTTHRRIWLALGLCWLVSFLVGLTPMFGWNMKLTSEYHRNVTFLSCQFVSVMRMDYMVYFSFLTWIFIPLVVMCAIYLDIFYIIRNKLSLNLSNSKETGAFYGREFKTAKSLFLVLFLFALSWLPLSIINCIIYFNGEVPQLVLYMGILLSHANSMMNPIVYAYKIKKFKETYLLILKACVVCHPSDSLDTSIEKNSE
Procedure: as §1, §2, §3

hA2B AR = target: T3, hA2B AR (Homo sapiens, UniProt P29275); assay: cAMP assay in CHO cells expressing hA2B AR (stimulation of cAMP production); settings: for Emax at 1 µM: CHO, 1 µM compound, in comparison with NECA (1 µM = 100%), read-out: Efficacy hA2B (cAMP assay) (converted); for EC50: hA2B CHO cells, mean ± SEM of four assays
T3 construct: host or cells: CHO cells
T3 sequence (P29275 1-332): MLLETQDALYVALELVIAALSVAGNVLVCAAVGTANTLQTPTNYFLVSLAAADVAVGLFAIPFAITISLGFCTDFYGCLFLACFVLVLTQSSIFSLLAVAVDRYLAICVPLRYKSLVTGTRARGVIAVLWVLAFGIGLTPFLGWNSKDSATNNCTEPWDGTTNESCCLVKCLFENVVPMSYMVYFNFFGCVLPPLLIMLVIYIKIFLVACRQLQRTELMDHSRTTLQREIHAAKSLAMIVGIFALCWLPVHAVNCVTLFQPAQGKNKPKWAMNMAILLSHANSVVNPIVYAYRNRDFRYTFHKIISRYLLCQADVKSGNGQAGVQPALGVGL
Procedure: as §1, §2, §3

| EC50 (hA1AR) [nM] | hA1AR Efficacy (hA1AR) [%] | hA1AR Profile (hA1AR) | IC50 (hA3AR) [nM] | hA3AR Efficacy (hA3AR) [%] | Emax at 1 µM (hA2B AR) [%] | EC50 (hA2B AR) [nM] | Structure (SMILES) |
| --- | --- | --- | --- | --- | --- | --- | --- |
| 12.2 ± 1.2 | 31 ± 3 | Partial Agonist | 68 ± 6 | 45 ± 4 | 52 | 1.4 ± 0.2 | N#Cc1c(N)nc(SCc2ncc[nH]2)c(C#N)c1-c1ccco1 [Compound 1, 2-Amino-4-(furan-2-yl)-6-[(1H-imidazol-2-ylmethyl)sulfanyl]pyridine-3,5-dicarbonitrile] |
| 1.95 ± 0.16 | 75 ± 5 | Partial Agonist | 33 ± 2 | 34 ± 3 | 73 | 1.12 ± 0.11 | N#Cc1c(N)nc(SCc2ncc[nH]2)c(C#N)c1-c1cccs1 [Compound 5, 2-Amino-6-[(1H-imidazol-2-ylmethyl)sulfanyl]-4-(thiophen-2-yl)pyridine-3,5-dicarbonitrile] |
